We go through 18 compounds from PubChem BioAssay (NCI).

The structures appear in SMILES notation.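 Test compounds were applied to cells in 96-well plates for 48 hours at 5 doses. TGI: total growth inhibition.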

Test systems include SW-620 colon; T-47D breast; TK-10 renal; HOP-62 NSCLC; M14 melanoma; SF-295 CNS; SN12C renal.
Common to all, as to assay: NCI-60 cell line screen, 48 h

Regarding `C[N+]1(C)C2CC(OC(=O)C(CO)c3ccccc3)CC1C1OC12` (stereo unspecified), the TGI in the assay with SW-620 colon, with T-47D breast, in the assay with TK-10 renal, with HOP-62 NSCLC, in the assay on M14 melanoma and in the assay on SF-295 CNS was greater than 100 µM each time. The compound also gave a TGI in the assay with SN12C renal greater than 100 µM.
With `C=CC(=O)NCCC(=O)OCn1cc(F)c(=O)[nH]c1=O`, the TGI in the assay with SW-620 colon, with T-47D breast, with TK-10 renal, in the assay with HOP-62 NSCLC, in the assay on M14 melanoma and with SF-295 CNS was greater than 100 µM in each case. Moreover, in the assay with SN12C renal, the TGI was determined as 15.3 µM.
In the case of `NC(N)=N/N=C/c1c(-c2ccccc2[N+](=O)[O-])nc2sccn12`, the TGI in the assay with SW-620 colon came out at 38 µM; in the assay with T-47D breast, 59 µM; in the assay with TK-10 renal it was 57 µM; in the assay on HOP-62 NSCLC it was 69.5 µM; with M14 melanoma, 31.2 µM; in the assay with SF-295 CNS it was 50 µM. In the assay on SN12C renal, this compound had a TGI greater than 100 µM.
As to `O=C1CSCC(=O)Nc2ccccc2N1`, the TGI in the assay with SW-620 colon, with T-47D breast, in the assay on TK-10 renal, with HOP-62 NSCLC, in the assay with M14 melanoma and with SF-295 CNS was greater than 100 µM in each case. Also, the TGI with SN12C renal is greater than 100 µM.
Turning to `COc1ccc2c(O)c(Oc3ccc(Cl)cc3)c(=O)oc2c1`, the TGI in the assay on SW-620 colon, with T-47D breast, in the assay on TK-10 renal, with HOP-62 NSCLC, with M14 melanoma and in the assay on SF-295 CNS was greater than 100 µM each time. In the assay on SN12C renal, this compound came in with a TGI greater than 100 µM.
As for `O=c1[nH]c(=S)[nH]cc1CN1CCOCC1`, the TGI with SW-620 colon, in the assay on T-47D breast, in the assay with TK-10 renal, in the assay on HOP-62 NSCLC, with M14 melanoma and with SF-295 CNS was greater than 100 µM each time. In addition, the TGI in the assay with SN12C renal was greater than 100 µM.
With `O=C1c2ccccc2-c2nnc3c(c21)Cc1ccccc1C3`, the TGI in the assay with SW-620 colon, in the assay with T-47D breast, in the assay with TK-10 renal, in the assay on HOP-62 NSCLC, in the assay with M14 melanoma and with SF-295 CNS was greater than 10 µM throughout. In addition, in the assay with SN12C renal, the TGI was greater than 10 µM.
For `O=C1C=CC2(C=C1)O[C@H](COCc1ccccc1)[C@@H](COCc1ccccc1)O2`, the TGI in the assay on SW-620 colon is 0.765 µM; in the assay with T-47D breast, 6.99 µM; in the assay with TK-10 renal it was 4.17 µM; with HOP-62 NSCLC, 5.12 µM; in the assay on M14 melanoma it was 3.88 µM; in the assay with SF-295 CNS it was 30.3 µM. Further, in the assay on SN12C renal, the TGI is 3.6 µM.
Regarding `NC(N)=N/N=C\c1c(-c2cccc([N+](=O)[O-])c2)nc2sccn12`, the TGI in the assay with SW-620 colon was 5.43 µM; in the assay on T-47D breast, 4.18 µM; in the assay with TK-10 renal, 4.53 µM; in the assay on HOP-62 NSCLC, greater than 100 µM; in the assay on M14 melanoma it was 5.93 µM; in the assay with SF-295 CNS, 5.86 µM. In the assay on SN12C renal, this compound gave a TGI of 4.89 µM.
As to `CN1CCN(c2cc3[nH]c4cc(O)cc(O)c4c(=O)c3cc2N)CC1`, the TGI with SW-620 colon was 65.3 µM; in the assay on T-47D breast, greater than 100 µM; in the assay with TK-10 renal it was 94.2 µM; in the assay with HOP-62 NSCLC it was greater than 100 µM; with M14 melanoma, greater than 100 µM; in the assay on SF-295 CNS it was greater than 100 µM. Further, the TGI in the assay with SN12C renal was 3.43 µM.
For the compound `CN(Cc1cnc2nc(N)nc(N)c2n1)c1ccc(C(=O)NCCCS(=O)(=O)O)cc1`, the TGI in the assay on SW-620 colon, with T-47D breast, in the assay with TK-10 renal, in the assay with HOP-62 NSCLC, with M14 melanoma and with SF-295 CNS was greater than 100 µM each time. The TGI in the assay with SN12C renal was greater than 100 µM.
Take `Cc1cn([C@@H]2O[C@H](CO[Si](C)(C)C(C)(C)C)[C@]3(O[C@H]3C(=O)NO)[C@H]2O[Si](C)(C)C(C)(C)C)c(=O)[nH]c1=O`: the TGI with SW-620 colon amounted to 4.28 µM; with T-47D breast, 4.07 µM; in the assay with TK-10 renal, 5.35 µM; in the assay on HOP-62 NSCLC it was 3.52 µM; in the assay on M14 melanoma, 3.56 µM; with SF-295 CNS, 3.4 µM. This compound gave a TGI in the assay on SN12C renal of 3.08 µM.
In the case of `C#CCOC(=O)C(N)CC(N)=O` (stereo unspecified), the TGI in the assay on SW-620 colon, in the assay with T-47D breast, in the assay on TK-10 renal, in the assay with HOP-62 NSCLC, with M14 melanoma and in the assay with SF-295 CNS was greater than 100 µM each time. This compound yielded a TGI with SN12C renal greater than 100 µM.
With `CC(C#N)(c1ccccc1)N(CCc1ccccc1)C(=O)Oc1ccccc1` (stereo unspecified), the TGI in the assay on SW-620 colon, in the assay with T-47D breast, in the assay on TK-10 renal, with HOP-62 NSCLC, with M14 melanoma and with SF-295 CNS was greater than 100 µM throughout. The compound also gave a TGI in the assay with SN12C renal greater than 100 µM.
For `NS(=O)(=O)c1ccc(NC(=S)NC(=O)Nc2ccc(Cl)c(Cl)c2)cc1`, the TGI in the assay with SW-620 colon was 35.9 µM; in the assay with T-47D breast it was 33.3 µM; in the assay with TK-10 renal it was 81.5 µM; in the assay with HOP-62 NSCLC it was 36.8 µM; with M14 melanoma, 20.9 µM; in the assay with SF-295 CNS, 30.8 µM. In the assay with SN12C renal, this compound registered a TGI of 31 µM.
As for `O=C(CCC(=O)c1ccsc1)c1ccsc1`, the TGI with SW-620 colon, in the assay with T-47D breast, in the assay on TK-10 renal, in the assay with HOP-62 NSCLC, in the assay on M14 melanoma and with SF-295 CNS was greater than 100 µM each time. The TGI with SN12C renal is greater than 100 µM.
`COCN1C(=O)[C@@H]2CCCN2C(=O)c2cc(OC)c(Cc3ccccc3)cc21`: the TGI with SW-620 colon, with T-47D breast, in the assay with TK-10 renal, with HOP-62 NSCLC, in the assay with M14 melanoma and in the assay on SF-295 CNS was greater than 100 µM in each case. The TGI in the assay on SN12C renal was greater than 100 µM.
`COc1ccc2c(-c3csc(-c4c[nH]c5ccc(Br)cc45)n3)c[nH]c2c1`: the TGI in the assay on SW-620 colon, in the assay with T-47D breast, in the assay with TK-10 renal, in the assay on HOP-62 NSCLC, with M14 melanoma and in the assay on SF-295 CNS was greater than 100 µM each time. In the assay with SN12C renal, the TGI was greater than 100 µM.
